Some test systems named below: HCT-116 colon; ACHN renal; HT29 colon; NCI-H23 lung; RPMI-8226 leukemia; SK-MEL-28 melanoma; RXF 393 renal; HL-60(TB) leukemia; COLO 205 colon; SR leukemia.
Holding throughout (experiment): inhibition of tumour cell growth, NCI panel, 48 h

Several values for one entry are separate records, joined by “and”; a condition that tells them apart may be missing. Equal values may be shown once.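 Cultured in 96-well plates, cells were exposed to test compound for 48 hours across five concentrations. GI50 is the concentration that inhibits growth by half. TGI: concentration producing complete growth inhibition.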

`CCSC1=CC(=O)c2nc3ccccc3c3ccnc1c23`: the TGI was above 25.1 µM in the assay on HCT-116 colon; above 44.7 µM in the assay on ACHN renal; 16.9 µM with HT29 colon; 11.4 µM in the assay on NCI-H23 lung; above 31.6 µM in the assay with RPMI-8226 leukemia; 25.3 µM in the assay with SK-MEL-28 melanoma. In addition, the TGI in the assay with RXF 393 renal was 18.2 µM; in the assay with HL-60(TB) leukemia, 7.74 µM; in the assay with COLO 205 colon, above 32.8 µM; in the assay with SR leukemia, 15.5 µM.
`C=C1C(=O)OC2/C=C(\CO)C(OC(C)=O)CC(O)/C(C)=C/C(OC(=O)C(C)CC)C12` (stereo unspecified): the TGI with HCT-116 colon is 27.6 µM and 42.5 µM; in the assay on ACHN renal it was 56.7 µM and 72.7 µM; in the assay on HT29 colon it was 46.6 µM and 35.5 µM; with NCI-H23 lung, 32.1 µM and 59.9 µM; in the assay on RPMI-8226 leukemia it was 23.4 µM and 56.3 µM; in the assay on SK-MEL-28 melanoma it was 32.3 µM and 70.1 µM. Also, the TGI in the assay on RXF 393 renal is 40 µM and 49.8 µM; in the assay on HL-60(TB) leukemia, 39.6 µM and 30.9 µM; in the assay with COLO 205 colon, 28.8 µM and 24.3 µM; in the assay on SR leukemia it was 39.2 µM. For the same molecule, the GI50 with RPMI-8226 leukemia is 5.57 µM and 24.9 µM.
On to `O=c1c2ncn(C3CC(O)C(CO)O3)c2nnn1Cc1ccccc1[N+](=O)[O-]` (stereo unspecified), for which the TGI with HCT-116 colon, in the assay on ACHN renal, in the assay with HT29 colon, in the assay with NCI-H23 lung, in the assay on RPMI-8226 leukemia and with SK-MEL-28 melanoma was above 100 µM throughout. Further, the TGI in the assay with RXF 393 renal was 94.1 µM; with HL-60(TB) leukemia, above 100 µM; with COLO 205 colon it was above 100 µM; in the assay on SR leukemia, 45.4 µM.
Take `CC1(C)C(c2ccccc2)=[N+]([O-])C(C)(C)N1O`: the TGI with HCT-116 colon, in the assay with ACHN renal, in the assay with HT29 colon, in the assay with NCI-H23 lung, in the assay with RPMI-8226 leukemia and in the assay on SK-MEL-28 melanoma was above 10 µM in each case. For the same molecule, the TGI in the assay with RXF 393 renal, with HL-60(TB) leukemia, with COLO 205 colon and in the assay with SR leukemia was above 10 µM in each case.
On to `Cc1ccc(S(=O)(=O)N2CCSCCSCCSCCSCC2)cc1`, for which the TGI is above 100 µM in the assay with HCT-116 colon; above 100 µM in the assay on ACHN renal; above 100 µM with HT29 colon; above 92.6 µM in the assay on NCI-H23 lung; above 100 µM in the assay with RPMI-8226 leukemia; above 100 µM with SK-MEL-28 melanoma. The TGI in the assay on RXF 393 renal was above 45.9 µM; in the assay with HL-60(TB) leukemia, above 100 µM; in the assay on COLO 205 colon it was above 100 µM; in the assay on SR leukemia it was above 100 µM.
Consider `Cc1ccccc1OC(C)C(=O)NN1C(=O)CC(=O)N(c2ccc(Cl)cc2)C1=S` (stereo unspecified), for which the TGI with HCT-116 colon was 53 µM; with ACHN renal, above 100 µM; in the assay on HT29 colon, above 100 µM; in the assay with NCI-H23 lung, above 100 µM; in the assay on RPMI-8226 leukemia, above 100 µM; in the assay with SK-MEL-28 melanoma, above 100 µM. Moreover, the TGI in the assay with RXF 393 renal amounted to 78.3 µM; in the assay on HL-60(TB) leukemia, 39.8 µM; with COLO 205 colon, 68.3 µM; with SR leukemia, 84.1 µM.
`N#Cc1nc(-c2cc([N+](=O)[O-])cc([N+](=O)[O-])c2)oc1N`: the TGI with HCT-116 colon, in the assay on ACHN renal, in the assay on HT29 colon, with NCI-H23 lung, with RPMI-8226 leukemia and in the assay on SK-MEL-28 melanoma was above 10 µM in each case. Besides, the TGI in the assay on RXF 393 renal, in the assay with HL-60(TB) leukemia, in the assay on COLO 205 colon and in the assay on SR leukemia was above 10 µM in each case.
Regarding `CN(C)NC(=S)Nc1ccccc1Br`, the TGI in the assay with HCT-116 colon, in the assay on ACHN renal, in the assay on HT29 colon, in the assay with NCI-H23 lung, in the assay on RPMI-8226 leukemia and in the assay on SK-MEL-28 melanoma was above 100 µM throughout. For the same molecule, the TGI with RXF 393 renal, in the assay on HL-60(TB) leukemia, with COLO 205 colon and in the assay with SR leukemia was above 100 µM in each case.
With `O=C1C(c2c(O)[nH]c3ccc(S(=O)(=O)O)cc23)=Nc2ccccc21`, the TGI in the assay on HCT-116 colon, with ACHN renal, in the assay with HT29 colon, with NCI-H23 lung, in the assay with RPMI-8226 leukemia and in the assay on SK-MEL-28 melanoma was above 100 µM throughout. In addition, the TGI with RXF 393 renal, in the assay on HL-60(TB) leukemia, in the assay on COLO 205 colon and with SR leukemia was above 100 µM in each case.
Turning to `NC(CSCc1ccccc1)C(=O)O` (stereo unspecified), the TGI in the assay on HCT-116 colon, in the assay on ACHN renal, in the assay on HT29 colon, with NCI-H23 lung, in the assay with RPMI-8226 leukemia and in the assay with SK-MEL-28 melanoma was above 100 µM throughout. Besides, the TGI in the assay on RXF 393 renal, in the assay on HL-60(TB) leukemia, in the assay on COLO 205 colon and with SR leukemia was above 100 µM throughout.
For `CC(C)(C)NC(=O)[C@H]1CC[C@H]2[C@@H]3CC=C4NC(=O)CC[C@]4(C)[C@H]3CC[C@]12C`, the TGI with HCT-116 colon, in the assay with ACHN renal, with HT29 colon, in the assay on NCI-H23 lung, with RPMI-8226 leukemia and in the assay with SK-MEL-28 melanoma was above 100 µM each time. In addition, the TGI in the assay on RXF 393 renal, in the assay with HL-60(TB) leukemia, in the assay on COLO 205 colon and in the assay with SR leukemia was above 100 µM in each case.

The record behind these values is PubChem BioAssay (NCI).
